# Reference: the supplement of paper PMC11616607
# Experiments:
# Experiment in all cases: drug sensitivity score (DSS) from 5-point dose-response viability curve (DSS (area-under-curve based score)); higher = more sensitive (stronger growth inhibition or killing); extreme values may be limits of the assay
# Settings in all cases: exposure time: 72 h; concentration range: 5 concentrations over 10,000-fold range
# [1] = system: Ovsaho
# Summary of the method: (§1)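 Drug sensitivity scores were calculated in Breeze software for each cell line and drug pair; higher scores indicate more sensitivity. A score of zero indicates no response. The underlying assay used 384-well plates: drugs were placed by an Echo 550 acoustic dispenser at five concentrations spanning a 10,000-fold range, 1,500 ovarian cancer or normal ovarian cells were added per well, and cells were kept 3 days at 37°C, 5% CO2. Viability was then measured with CellTiter-Glo luminescence on a PHERAstar FS.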
# [2] = system: HOSE2C
# Summary of the method: as §1
# [3] = system: COV318
# Summary of the method: as §1
# [4] = system: COV362
# Summary of the method: as §1
# [5] = system: CAOV3
# Summary of the method: as §1
# [6] = system: HOSE1C
# Summary of the method: as §1
# [7] = system: Kuramochi
# Summary of the method: as §1
# [8] = system: OVCAR4
# Summary of the method: as §1
# [9] = system: JHOS2
# Summary of the method: as §1
# [10] = system: OVCAR5
# Summary of the method: as §1
# [11] = system: OVCAR8
# Summary of the method: as §1
# [12] = system: OV90
# Summary of the method: as §1
SMILES,drug sensitivity score [1],drug sensitivity score [2],drug sensitivity score [3],drug sensitivity score [4],drug sensitivity score [5],drug sensitivity score [6],drug sensitivity score [7],drug sensitivity score [8],drug sensitivity score [9],drug sensitivity score [10],drug sensitivity score [11],drug sensitivity score [12]
Cc1c(N)nc([C@H](CC(N)=O)NC[C@H](N)C(N)=O)nc1C(=O)N[C@H](C(=O)N[C@H](C)[C@@H](O)[C@H](C)C(=O)N[C@H](C(=O)NCCc1nc(-c2nc(C(=O)NCCC[S+](C)C)cs2)cs1)[C@@H](C)O)[C@@H](OC1OC(CO)C(O)C(O)C1OC1OC(CO)C(O)C(OC(N)=O)C1O)c1cnc[nH]1 (stereo partly drawn) [Bleomycin],1,4.5,0,0,2.2,2.8,0,0.6,0.8,2.3,5.6,2.6
CC(C)C[C@H](NC(=O)[C@H](Cc1ccccc1)NC(=O)c1cnccn1)B(O)O [Bortezomib],17.8,24.4,28.3,24.7,26.4,27.4,9.3,24.6,24.5,23.9,23,22.8
COc1cc(Nc2c(C#N)cnc3cc(OCCCN4CCN(C)CC4)c(OC)cc23)c(Cl)cc1Cl [Bosutinib],10.5,6.2,2,8.5,8,6.8,8.8,5.7,7,9.4,6.7,8.7
COc1cc(N2CCC(N3CCN(C)CC3)CC2)ccc1Nc1ncc(Cl)c(Nc2ccccc2P(C)(C)=O)n1 [Brigatinib],4.3,2.9,3.5,1.6,3.3,0.3,3.5,1.7,2.1,3.7,0,4
Cc1cc2c(F)c(Oc3ncnn4cc(OC[C@@H](C)O)c(C)c34)ccc2[nH]1 [Brivanib],0,0,0,0,0,0,0,0,0,0,0,0
CCC/C=C/C=C/C(=O)O[C@H]1/C(=C/C(=O)OC)C[C@H]2C[C@H]([C@@H](C)O)OC(=O)C[C@H](O)C[C@@H]3C[C@H](OC(C)=O)C(C)(C)[C@](O)(C[C@@H]4C/C(=C/C(=O)OC)C[C@H](/C=C/C(C)(C)[C@]1(O)O2)O4)O3 [Bryostatin 1],0,1.6,1.4,8.9,0.1,10.3,0,1.1,0,0.2,0,1.4
Nc1cc(C(F)(F)F)c(-c2cc(N3CCOCC3)nc(N3CCOCC3)n2)cn1 [Buparlisib],6.5,8.8,4.6,3.8,8.7,8.6,6.1,5.3,4.6,8.8,7.7,5.1
CCN1C(=O)CNc2ncc(-c3ccc(-c4nc[nH]n4)nc3C)nc21 [CC-115],11.2,9.2,5.6,2.4,8,12,7.3,9.3,7.5,7.4,8.5,10.4
COc1cc(C)[nH]c(=O)c1CNC(=O)c1c(C)n([C@H](C)C2CCOCC2)c2ccccc12 [CPI-360],0,0,0,0,0,0,0,0,0.2,0.8,0,0.6
Cc1noc2c1-c1ccccc1C(c1ccc(Cl)cc1)=N[C@H]2CC(N)=O [CPI-0610],12.6,9.9,4.1,5.9,8.5,9.3,13,5,5,9.3,6.4,7.6
CN(C)c1cc2c(cc1Sc1nc3c(N)nccc3n1CCNCC(C)(C)C)OCO2 [CUDC-305],3,15.3,4,8.8,14.5,11.5,5.9,8.5,10.8,10.8,16.4,14.5
COc1ccc(-c2nc(N3CCOCC3)c3sc(CN(C)c4ncc(C(=O)NO)cn4)cc3n2)cn1 [CUDC-907],29.2,42.7,21.3,20.3,31.3,45.8,29.4,26.2,26.4,38.3,41.5,37
CO[C@H]1C(=O)[C@]2(C)[C@@H](OC)C[C@H]3OC[C@@]3(OC(C)=O)[C@H]2[C@H](OC(=O)c2ccccc2)[C@]2(O)C[C@H](OC(=O)[C@H](O)[C@@H](NC(=O)OC(C)(C)C)c3ccccc3)C(C)=C1C2(C)C [Cabazitaxel],9,29.8,7.3,7.8,29.3,29.9,10.7,4.3,12.8,25.6,30.6,13.2
COc1cc2nccc(Oc3ccc(NC(=O)C4(C(=O)Nc5ccc(F)cc5)CC4)cc3)c2cc1OC [Cabozantinib],0,0.6,2.2,0.2,0.4,0,3.1,0,1,1.5,0,4.5
C=CC(=O)Nc1cc2c(Nc3ccc(F)c(Cl)c3)ncnc2cc1OCCCN1CCOCC1 [Canertinib],8.3,8.2,4.3,5.9,13.2,8.4,8,7.7,7.5,8,8.4,7.3
CCCCCOC(=O)Nc1nc(=O)n([C@@H]2O[C@H](C)[C@@H](O)[C@H]2O)cc1F [Capecitabine],0,0,0,0,0.2,0.3,0,0,0,0.3,0,0
CNC(=O)c1ccc(-c2cnc3ncc(Cc4ccc5ncccc5c4)n3n2)cc1F [Capmatinib],0,0,0,0,0,0,0.1,0,0,0,0,0
O=C(O)C1(C(=O)O)CCC1.[NH2-].[NH2-].[Pt+2] [Carboplatin],5.5,5,5.5,0,6.1,7.8,4.9,5.6,3.1,4.7,1.9,3.6
CC(C)C[C@H](NC(=O)[C@H](CCc1ccccc1)NC(=O)CN1CCOCC1)C(=O)N[C@@H](Cc1ccccc1)C(=O)N[C@@H](CC(C)C)C(=O)[C@@]1(C)CO1 [Carfilzomib],28.4,28.4,26.5,20.2,24.6,27.4,12.4,23.4,25.5,24,21.5,27.6
COc1cc2c(Oc3ccc4[nH]c(C)cc4c3F)ncnc2cc1OCCCN1CCCC1 [Cediranib],0.7,0,0.2,0,0,0,0,0.5,0,0,0,0
Cc1ccc(-c2cc(C(F)(F)F)nn2-c2ccc(S(N)(=O)=O)cc2)cc1 [Celecoxib],0,0,0,0,0,0,0,0,0,0,0,0
CCS(=O)(=O)N1CCN(c2ccc(Nc3ncc(C(N)=O)c(NC4CC4)n3)cc2)CC1 [Cerdulatinib],0,0.8,0,2.7,0.2,0,0,0.3,3.5,0,0,0.6
Cc1cc(Nc2ncc(Cl)c(Nc3ccccc3S(=O)(=O)C(C)C)n2)c(OC(C)C)cc1C1CCNCC1 [Ceritinib],3.3,2.2,0.8,0,2.7,0.7,2.1,1.5,0,3.8,0,4.9
CC(C)[C@H]1C(=O)N[C@@H](CCCNC(=N)N)C(=O)NCC(=O)N[C@@H](CC(=O)O)C(=O)N[C@H](Cc2ccccc2)C(=O)N1C [Cilengitide],17.7,3.5,0,5.6,0,0,5.4,2.9,1.6,1.1,0.2,2.5
N.N.[Cl][Pt][Cl] [Cisplatin],15.7,16.4,11.7,3.3,16.5,18.3,11.2,10.7,4.3,8.8,5,4.8
Nc1nc(Cl)nc2c1ncn2[C@H]1C[C@H](O)[C@@H](CO)O1 [Cladribine],0.1,0,0,0.1,4.2,0,0,0,3.1,2.1,9.8,1.6
Nc1nc(Cl)nc2c1ncn2[C@@H]1O[C@H](CO)[C@@H](O)[C@@H]1F [Clofarabine],4.7,24.1,4.7,7.3,17.1,25,3,0,13.5,9.5,22.4,11.9
CCN(CC)CCOc1ccc(C(=C(Cl)c2ccccc2)c2ccccc2)cc1 [Clomifene],3.2,4.1,2.2,4.4,3.2,5.8,3.9,1.9,3.8,7,3.1,6.9
O=C(c1ccc(F)c(F)c1Nc1ccc(I)cc1F)N1CC(O)([C@@H]2CCCCN2)C1 [Cobimetinib],8.9,3,0,3.5,8.5,0.9,4.6,1.4,4,8.8,2.4,25.7
